# “And” between values parts separate entries of the source, which are not always exact repeats. Equal values may be shown once.
# What was measured:
# [1] = tested on: NFκB activity of BxPC-3 cells transplanted orthotopically; test: NFκB promoter activity in vivo, orthotopic BxPC-3 tumors; design: species or system mice
# Description: FIGS. 3A, 3B, and 3C show the effect of cromolyn on S100P stimulated NFκB promoter activity in pancreatic cancer cells in vitro and in vivo. Panc-1 and BxPC-3 pancreatic cancer cell lines stably expressing an NFκB luciferase reporter were examined for the effects of S100P and cromolyn. […] Means and 95% confidence intervals are shown for three independent experiments performed in triplicate. *, P=0.022, †, P<0.001, and ‡, P<0.001 versus control; #, P=0.005 versus 100 nM S100P alone. […] Means and 95% confidence intervals are shown for three independent experiments performed in triplicate. *, P=0.003, †, P<0.001 versus control. […] After 1 week, tumor growth was assessed and NFκB activity was analyzed using an IVIS system (Xenogen Corp., Alameda, Calif.) after injecting mice with D-luciferin (150 mg per kg body weight) (0 time point). The mice were treated with cromolyn (5 mg per kg body weight by intraperitoneal injection), and NFκB luciferase activity was analyzed again at 24 and 48 hours. *, P=0.005 versus control. Means and 95% confidence intervals are shown for two independent experiments (n=4 mice per group). Two-tailed two-sample (unpaired for in vitro and paired for in vivo studies) Student's t-tests were used to determine P values.
# To measure NFκB promoter activity in vivo, BxPC-3 cells (50,000/50 μL) stably expressing a Lenti-NFkB-luc reporter were transplanted orthotopically into the pancreas of 4-week-old male CB 17 scid mice (n=4 mice per experiment). After 1 week mice were injected with D-luciferin (150 mg per kg body weight, i.p.), and basal NFκB activity was determined using the IVIS system. Subsequently, mice were injected with cromolyn (5 mg per kg body weight, i.p.), and NFκB luciferase activity was re-analyzed after 24 and 48 hours. These experiments were performed three times.
# BxPC-3 orthotopic tumors = test: Tumor growth and metastasis in scid mice, BxPC-3 orthotopic; type: in vivo; details: for lung metastasis, mean: control mean=5.5×10^8; for tumor burden (primary tumor volume by bioluminescence), mean: end of six weeks, cromolyn 5 mg per kg daily i.p., gemcitabine 125 mg per kg bi-weekly i.p., control mean=1.6×10^9
# Description: BxPC-3 cells stably expressing the firefly luciferase gene were injected orthotopically into 4 week old male CB 17 scid mice. […] Mice were divided into four groups of five mice each with an equivalent mean tumor size between groups. […] One group was treated with water (control), one group received gemcitabine bi-weekly (125 mg kg body weight bi-weekly by intraperitoneal injection), one group was administered cromolyn daily (5 mg per kg body weight daily by intraperitoneal injection), and the final group was given the combination of daily cromolyn and bi-weekly gemcitabine. All groups were treated for six weeks. Bioluminescent imaging was done weekly to assess tumor growth. […] Means and 95% confidence intervals are shown. (n=20). Two-tailed two-sample (unpaired) Student's t-tests were used to determine P values. The anti-tumorigenic capability of the drug cromolyn was assessed in 4-week-old male CB 17 scid mice (n=20) carrying orthopic tumors of BxPC-3, MPanc96, and Panc-1 cells stably expressing a Lenti-luc reporter. All mouse experiments were reviewed and approved by the Institutional Animal Care and Use Committee of UT MD Anderson Cancer Center. All mice were maintained in a sterile environment. Cages, bedding, food, and water were all autoclaved. All mice were maintained on a daily 12-hour light/12-hour dark cycle, according to the institutional animal welfare guidelines. BxPC-3, MPanc96, and Panc-1 cells carrying the Lenti-luc reporter gene were grown to 80% confluence, harvested by incubation with trypsin-EDTA, washed twice in PBS, and resuspended to a final concentration of 4.0×10^6 cells/mL. Each mouse (n=20 mice per cell line) was injected (into the pancreas) with cell suspensions (50 μL). […] This initial tumor volume was used to divide the mice into four groups of five mice each, such that the mean tumor size was equal between groups (FIGS. 4A, 5A, and 6A). To allow enough time to observe differences among treatment groups, the mice were followed for the next 5 weeks. One group of mice was then treated biweekly with a sub-maximal concentration of gemcitabine (125 mg per kg body weight by i.p. injection). A second group was treated with a daily injection of cromolyn (5 mg per kg body weight by i.p. injection). A third group was treated with both bi-weekly gemcitabine and daily cromolyn. The control group was treated daily with vehicle. Treatments were continued for 5 weeks, and the effects on the tumor burden and metastasis were analyzed by weekly bioluminescence imaging (FIGS. 4B, 5B, and 6B). At the end of the experiment the mice were anesthetized with 1.5% isofluorane/air mixture and killed by cervical dislocation. […] Before imaging, mice were placed in an acrylic chamber, anesthetized with 1.5% isofluorane/air mixture, and injected i.p. with 15 mg/mL of luciferin potassium salt in PBS at a dose of 150 mg per kg body weight. A digital grey scale image of each mouse was acquired, followed by acquisition and overlay of a pseudocolor image representing the spatial distribution of detected photons emerging from active luciferase within the mouse. Tumor volume was quantified as the sum of all detected photons within the region of the tumor per second. At the end of experiment, the mice were killed, and tumors were surgically removed and weighed. After the primary tumors were removed, cancer cell dissemination and metastasis was visualized using IVIS imaging, and metastatic colonies were counted. Subsequently, tissues were fixed with formaldehyde, and histology was used to verify the accuracy of the bioluminescence data.
# MPan-96 cells = test: MPanc-96 cell invasiveness; type: cell-based, human
# BxPC-3 cells = test: Flow cytometry to measure apoptosis in BxPC-3 cells; type: cell-based; details: 48 hours
# Description: BxPC-3 cells were treated with cromolyn (10 μM) with (+) or without (−) gemcitabine (10 μM), and apoptosis was analyzed after 48 hours by flow cytometry. *, P<0.001 versus control, #, P=0.001 versus gemcitabine. Means and 95% confidence intervals of three independent experiments performed in triplicate are shown. Two-tailed two-sample (unpaired) Student's t-tests were used to determine P values. Standard propidium iodide (PI) staining by the hypotonic lysis method was used for apoptosis studies. Apoptosis was induced in 1.0×10^6 BxPC-3 cells by treatment with gemcitabine (10 μM), with or without cromolyn. After 48 hours the cells were detached from culture dishes by incubation in 0.05% trypsin-EDTA, washed once with cold PBS, and then incubated for 30 minutes in 500 μL of hypotonic solution (0.1% sodium citrate, 0.1% Triton X-100, 100 μg/mL RNAse, and 50 μg/mL PI), and analyzed by flow cytometry (EPICS XL, Beckman Coulter Inc, Fullerton, Calif.). Cells undergoing apoptosis that had lost part of their DNA were identified as the population of cells with sub-G1 DNA content. These assays were performed three times.
Compound,"NFκB luciferase activity in vivo, mean ([1]; 24 h after single dose 5 mg per kg i.p., 0 h mean=9.9×10^6)",reduction of basal NFκB activity in vivo ([1]; 24 hours after single dose 5 mg per kg i.p.),NFκB activity in vivo at 48 hours ([1]; 48 hours after single dose 5 mg per kg i.p.),"NFκB luciferase activity in vivo, difference 0 h versus 24 h ([1]; single dose 5 mg per kg i.p.)","lung metastasis, difference versus control (BxPC-3 orthotopic tumors; BxPC-3)","tumor burden, difference versus control (BxPC-3 orthotopic tumors; BxPC-3)","lung metastasis, mean (BxPC-3 orthotopic tumors; BxPC-3)","tumor burden (primary tumor volume by bioluminescence), mean (BxPC-3 orthotopic tumors; BxPC-3)","effect on body weight (BxPC-3 orthotopic tumors; BxPC-3 model, up to 6 weeks)",MPanc-96 basal cell invasiveness (MPan-96 cells),"effect on BxPC-3 cell apoptosis, cromolyn alone (BxPC-3 cells; cromolyn 10 μM)","effect on liver metastasis (BxPC-3 orthotopic tumors; BxPC-3, versus control)","effect on lung metastasis (BxPC-3 orthotopic tumors; BxPC-3, versus control)","body weight, difference versus control (BxPC-3 orthotopic tumors; BxPC-3 model) [g]","body weight at the end of the experiment, mean (BxPC-3 orthotopic tumors; BxPC-3 model, control mean=31.1) [g]","apoptotic BxPC-3 cells, mean (BxPC-3 cells; gemcitabine 10 μM, cromolyn 10 μM, control mean=3.7%)","apoptotic BxPC-3 cells, difference versus control (BxPC-3 cells; gemcitabine 10 μM) [%]"
"O=C(O)c1cc(=O)c2c(OCC(O)COc3cccc4oc(C(=O)O)cc(=O)c34)cccc2o1 [cromolyn, disodium 1,3-bis[(2′-carboxylatochromon-5′-yl)oxy]-2-hydroxypropane]",1.3×10^6 photons/sec,at least 80%,returned to control levels,8.6×10^6 photons/sec,3.9×10^8 photons/sec,1.2×10^9 photons/sec,1.6×10^8 photons/sec,4.4×10^8 photons/sec,no effect on body weight,inhibited basal cell invasiveness,no statistically significant effect,–,–,–,–,–,–
Nc1ccn([C@@H]2O[C@H](CO)[C@@H](O)C2(F)F)c(=O)n1 [gemcitabine],–,–,–,–,–,6.8×10^8 photons/sec,3.9×10^8 photons/sec,9.2×10^8 photons/sec,–,–,–,did not reduce metastasis,did not reduce metastasis,3.9,27.2,31.0% and 30.8%,27.3
